pIC50: −log10 of the molar value.
System: Aβ production (APP-751 Swedish mutation transfected cells 293 751 SWE and CHO 751 SWE)
Experiment: Aβ production inhibition activity in cells (Aβ ELISA of conditioned media, normalized for MTT cytotoxicity)
Type: cell-based
Conditions: 2 h pretreatment + 2 h, normalized to MTT, mean of at least six replicate assays, cell line not stated, read-out: IC50 (concentration of test compound required to inhibit Aβ production by 50%)
Procedure: Two cell lines (human kidney cell line 293 and Chinese hamster ovary cell line CHO) were stably transfected with the gene for APP-751 containing the double mutation Lys651 -Met652 to Asn651 -Leu652 (APP-751 numbering) commonly called the Swedish mutation using the method described in Citron et al., (1992) Nature 360: 672-674. The transfected cell lines were designated as 293 751 SWE and CHO 751 SWE, and were plated in Corning 96 well plates at 2.5×10^4 or 1×10^4 cells per well respectively in Dulbecco's minimal essential media plus 10% fetal bovine serum. Following overnight incubation at 37° C. in an incubator equilibrated with 10% carbon dioxide (CO2), the media were removed and replaced with 200 μL per well of media containing a test compound. After a two hour pretreatment period, the media were again removed and replaced with fresh media containing the test compound and the cells were incubated for an additional two hours.
Test compound stocks were prepared in DMSO such that at the final concentration used in the treatment, the concentration of DMSO did no exceed 0.5%. After treatment, plates were centrifuged in a Beckman GPR at 1200 rpm for five minutes at room temperature to pellet cellular debris from the conditioned media. From each well, 100μL of conditioned media were transferred into an ELISA plate precoated with antibody 266 against βAP-13-28 (Seubert et al , supra.) and stored at 4° C. overnight. An ELISA assay employing labeled antibody 6C6 (against βAP-1-16) was run the next day to measure the amount of Aβ produced.
Cytotoxic effects of the test compounds were measured by a modification of the method of Hansen et al., (1989) J. Immun. Meth. 119: 203-210. To the cells remaining in the tissue culture plate, was added 25 μL of a 3,(4,5-dimethylthiazol-2-yl)2,5-diphenyltetrazolium bromide (MTT) stock solution (5 mg/mL) to a final concentration of 1 mg/mL. Cells were incubated at 37° C. for one hour, and cellular activity was stopped by the addition of an equal volume of MTT lysis buffer (20% w/v sodium dodecylsulfate in 50% DMF, pH 4.7). Complete extraction was achieved by overnight shaking at room temperature. The difference in the OD562 nm and the OD650 nm was measured in a Molecular Devices UVmax microplate reader as an indicator of the cellular viability.
The results of the Aβ ELISA were fit to a standard curve and expressed as ng/mL Aβ peptide. In order to normalize for cytotoxicity, these Aβ results were divided by the MTT results and expressed as a percentage of the results from a drug-free control.
The test compounds were assayed for Aβ production inhibition activity in cells at 10 μg/mL using the test. The results presented in Table 1 are the mean and standard deviation of at least six replicate assays. IC50 means the concentration of test compound in micromoles/liter required to inhibit Aβ production by 50%.

SMILES | pIC50
FC(F)(F)c1cc(NC(=S)Nc2ccc(Sc3ccc4ccccc4n3)cc2)ccc1Cl [Example 1, 1-[4-(2-quinolyl)thiophenyl]-3-(4-chloro-3-trifluoromethyphenyl)thiourea] | 5.43
CCOC(=O)c1cc(Sc2ccc(NC(=S)Nc3ccc(Cl)c(C(F)(F)F)c3)cc2)nc2ccccc12 [Example 2, 1-[4-(4-ethoxycarbonyl-2-quinolylthio)phenyl]-3-(4-chloro-3-trifluoromethylphenyl)thiourea] | 5.51
FC(F)(F)c1cc(NC(=S)Nc2ccc(Sc3ccc4cc(Cl)ccc4n3)cc2)ccc1Cl [Example 3, 1-[4-(6-Chloro-2-quinolylthio)phenyl]-3-(4-chloro-3-trifluoromethylphenyl)thiourea] | 5.57
FC(F)(F)c1cc(NC(=S)Nc2ccc(Sc3cc(-c4ccccc4)c4ccccc4n3)cc2)ccc1Cl [Example 4, 1-[4-(4-Phenyl-2-quinolylthio)phenyl]-3-(4-chloro-3-trifluoromethylphenyl)thiourea] | < 4.70
COc1ccc2nc(Sc3ccc(NC(=S)Nc4ccc(Cl)c(C(F)(F)F)c4)cc3)ccc2c1 [Example 5, 1-[4-(6-Methoxy-2-quinolylthio)phenyl]-3-(4-chloro-3-trifluoromethylphenyl)thiourea] | 5.36
FC(F)(F)c1cc(NC(=S)Nc2ccc(Sc3ccnc4ccccc34)cc2)ccc1Cl [Example 6, 1-[4-(4-Quinolylthio)phenyl]-3-(4-chloro-3-trifluoromethylphenyl)thiourea] | 5.33
FC(F)(F)c1ccc2c(Sc3ccc(NC(=S)Nc4ccc(Cl)c(C(F)(F)F)c4)cc3)ccnc2c1 [Example 7, 1-[4-(7-Trifluoromethyl-4-quinolylthio)phenyl]-3-(4-chloro-3-trifluoromethylphenyl)thiourea] | 5.35
FC(F)(F)c1cc(NC(=S)Nc2ccc(Sc3ccc4ccccc4c3)cc2)ccc1Cl [Example 8, 1-[4-(2-Naphthylthio)phenyl]-3-(4-chloro-3-trifluoromethylphenyl)thiourea] | 5.59
FC(F)(F)c1cc(NC(=S)Nc2ccc(Sc3cccc4ccccc34)cc2)ccc1Cl [Example 9] | 5.31
FC(F)(F)c1cc(NC(=S)Nc2ccc(Sc3nc4ccccc4[nH]3)cc2)ccc1Cl [Example 10, 1-[4-(2-Benzimidazolylthio)phenyl]-3-(4-chloro-3-trifluoromethylphenyl)thiourea] | 5.15
FC(F)(F)c1cc(NC(=S)Nc2ccc(Sc3nc4ccccc4o3)cc2)ccc1Cl [Example 11, 1-[4-(2-Benzoxazolylthio)phenyl]-3-(4-chloro-3-trifluoromethylphenyl)thiourea] | 4.90
FC(F)(F)c1cc(NC(=S)Nc2ccc(Sc3nc4ccccc4s3)cc2)ccc1Cl [Example 12, 1-[4-(2-Benzothiazolylthio)phenyl]-3-(4-chloro-3-trifluoromethylphenyl)thiourea] | 5.41
FC(F)(F)c1cc(NC(=S)Nc2ccc(Sc3nc4cc(Cl)ccc4s3)cc2)ccc1Cl [Example 13, 1-[4-(5-Chloro-2-benzothiazolylthio)phenyl]-3-(4-chloro-3-trifluoromethylphenyl)thiourea] | 5.77
[O-][S+](c1ccc(NC(=S)Nc2ccc(Cl)c(C(F)(F)F)c2)cc1)c1ccc2ccccc2n1 (stereo not shown) [Example 14, 1-[4-(2-Quinolylsulfinyl)phenyl]-3-(4-chloro-3-trifluoromethylphenyl)thiourea] | 4.92
O=S(=O)(c1ccc(NC(=S)Nc2ccc(Cl)c(C(F)(F)F)c2)cc1)c1ccc2ccccc2n1 [Example 15, 1-[4-(2-Quinolylsulfonyl)phenyl]-3-(4-chloro-3-trifluoromethylphenyl)thiourea] | 5.43
FC(F)(F)c1cc(NC(=S)Nc2ccc(Nc3ccc4ccccc4n3)cc2)ccc1Cl [Example 16, 1-[4-(2-quinolylamino)phenyl]-3-(4-chloro-3-trifluoromethylphenyl)thiourea] | 4.93
FC(F)(F)c1cc(NC(=S)Nc2ccc(Oc3ccc4ccccc4n3)cc2)ccc1Cl [Example 17, 1-[4-(2-Quinolyloxy)phenyl]-3-(4-chloro-3-trifluoromethylphenyl)thiourea] | 5.01
O=C(Nc1ccc(Sc2ccc3ccccc3n2)cc1)Nc1ccc(Cl)c(C(F)(F)F)c1 [Example 18, 1-[4-(2-Quinolylthio)phenyl]-3-(4-chloro-3-trifluoromethylphenyl]urea] | < 4.70
S=C(Nc1ccc(Sc2ccc3ccccc3n2)cc1)Nc1ccc(Cl)c(Cl)c1 [Example 19, 1-[4-(2-Quinolylthio)phenyl]-3-(3,4-dichlorophenyl)thiourea] | 4.86
FC(F)(F)c1cc(NC(=S)Nc2ccc(Sc3ccc(-c4ccccc4)nn3)cc2)ccc1Cl [Example 20] | 5.36
FC(F)(F)c1cc(NC(=S)Nc2ccc(Sc3ccccn3)cc2)ccc1Cl [Example 21] | 5.08
O=[N+]([O-])c1c(Sc2ccc(NC(=S)Nc3ccc(Cl)c(C(F)(F)F)c3)cc2)ccc2ncccc12 [Example 22] | 5.37

Reference: patent US5624937A, “Chemical compounds as inhibitors of amyloid beta protein production” (Eli Lilly and Company, priority 1995, dated 1997)
